Our source for the inhibition values is publication PMC6934184, “Selective DNA-PKcs inhibition extends the therapeutic index of localized radiotherapy and chemotherapy” (The Journal of Clinical Investigation, 2019).

The target of the test is T1, CAMKK2 (CaMKK beta) (Homo sapiens, UniProt Q96RR4).
T1 construct: purchased Thermo Fisher Scientific (Life Technologies) SelectScreen
Description: SelectScreen LanthaScreen. To be noted: read-out: % displacement. The format is binding. The method in brief: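 SelectScreen broad panel; activity (Z'LYTE, Adapta) plus binding formats. ATP: Km app for CSF1R Z'LYTE; 10 for CAMK1 Adapta. Readout = % per kinase.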
Background: Time-resolved FRET reads energy transfer from a long-lived donor to a nearby acceptor.

T1 sequence (Q96RR4 whole entry): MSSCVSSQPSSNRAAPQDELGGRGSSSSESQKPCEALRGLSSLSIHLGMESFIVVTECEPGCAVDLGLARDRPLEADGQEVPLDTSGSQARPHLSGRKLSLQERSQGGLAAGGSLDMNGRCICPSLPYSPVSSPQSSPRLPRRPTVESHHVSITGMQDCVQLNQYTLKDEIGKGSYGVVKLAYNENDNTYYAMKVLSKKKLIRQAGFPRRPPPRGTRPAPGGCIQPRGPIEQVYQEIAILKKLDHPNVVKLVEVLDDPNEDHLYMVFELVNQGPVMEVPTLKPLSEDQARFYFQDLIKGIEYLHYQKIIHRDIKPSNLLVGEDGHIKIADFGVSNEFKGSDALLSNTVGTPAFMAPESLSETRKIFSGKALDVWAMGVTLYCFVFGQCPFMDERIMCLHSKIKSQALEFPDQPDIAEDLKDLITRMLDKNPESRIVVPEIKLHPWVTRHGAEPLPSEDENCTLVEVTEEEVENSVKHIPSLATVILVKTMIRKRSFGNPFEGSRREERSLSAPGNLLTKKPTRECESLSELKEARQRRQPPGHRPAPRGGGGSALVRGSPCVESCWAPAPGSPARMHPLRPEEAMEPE

In the case of `CN(C(=O)CN1CCOCC1)c1ccc2sc3c(-c4cccc5c(=O)cc(N6CC7CCC(C6)O7)oc45)cccc3c2c1` [NU5455], the inhibition at 1 µM is 0.9%.
